Data from patent publication US11739098B2 (BRISTOL-MYERS SQUIBB COMPANY, priority 2017, dated 2023).

Columns and labels:
Format in all cases: cell-based
human TLR9 = molecular target: T1, human TLR9 (Homo sapiens, UniProt Q9NR96); test: TLR9 inhibition reporter assay (HEK-Blue cells, SEAP reporter, ODN2006 stimulation); settings: HEK-Blue cells overexpressing human TLR9, SEAP reporter, ODN2006 5 nM
T1 construct: host or cells: HEK-Blue cells (HEK293-derived reporter line)
T1 sequence (Q9NR96 26-1032): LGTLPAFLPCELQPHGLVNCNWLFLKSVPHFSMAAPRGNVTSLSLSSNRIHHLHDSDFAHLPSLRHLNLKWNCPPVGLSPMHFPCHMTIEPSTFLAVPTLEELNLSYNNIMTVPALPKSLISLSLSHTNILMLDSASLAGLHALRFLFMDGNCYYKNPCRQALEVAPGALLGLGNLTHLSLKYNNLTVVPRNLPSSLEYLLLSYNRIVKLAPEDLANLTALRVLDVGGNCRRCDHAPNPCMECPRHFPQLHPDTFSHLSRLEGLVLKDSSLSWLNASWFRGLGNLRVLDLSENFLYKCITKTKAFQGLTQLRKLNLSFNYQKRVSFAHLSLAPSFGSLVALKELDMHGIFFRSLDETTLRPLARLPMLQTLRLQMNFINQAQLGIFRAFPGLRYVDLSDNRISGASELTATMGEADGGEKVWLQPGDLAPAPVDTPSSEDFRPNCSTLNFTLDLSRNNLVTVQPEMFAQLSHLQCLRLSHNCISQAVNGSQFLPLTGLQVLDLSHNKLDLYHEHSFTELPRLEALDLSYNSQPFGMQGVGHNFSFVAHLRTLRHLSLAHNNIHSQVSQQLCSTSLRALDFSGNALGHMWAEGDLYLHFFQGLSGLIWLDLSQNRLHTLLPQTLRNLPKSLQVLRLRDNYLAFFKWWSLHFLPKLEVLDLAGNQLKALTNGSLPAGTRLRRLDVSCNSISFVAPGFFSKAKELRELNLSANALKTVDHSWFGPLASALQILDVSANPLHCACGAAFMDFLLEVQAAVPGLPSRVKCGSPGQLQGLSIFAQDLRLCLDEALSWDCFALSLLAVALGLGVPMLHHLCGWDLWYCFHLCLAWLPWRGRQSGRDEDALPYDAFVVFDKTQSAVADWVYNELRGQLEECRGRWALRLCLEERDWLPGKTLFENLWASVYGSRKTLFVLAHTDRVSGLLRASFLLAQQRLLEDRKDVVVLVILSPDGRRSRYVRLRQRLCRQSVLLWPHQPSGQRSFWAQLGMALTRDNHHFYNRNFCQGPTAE
How it was run: (§1)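 Agonists (final): TLR7 gardiquimod 7.5 μM; TLR8 R848 15.9 μM; TLR9 ODN2006 5 nM. HEK-Blue reporter cells, 30 min RT compound pre-incubation, 0.05 nM–50 μM dose range, 22 h at 37 °C, colorimetric SEAP detection medium. % inhibition relative to agonist+DMSO and known-inhibitor wells.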

human TLR8 = molecular target: T2, human TLR8 (Homo sapiens, UniProt Q9NR97); test: TLR8 inhibition reporter assay (HEK-Blue cells, SEAP reporter, R848 stimulation); settings: HEK-Blue cells overexpressing human TLR8, SEAP reporter, R848 15.9 μM
T2 construct: host or cells: HEK-Blue cells (HEK293-derived reporter line)
T2 sequence (Q9NR97 27-1041): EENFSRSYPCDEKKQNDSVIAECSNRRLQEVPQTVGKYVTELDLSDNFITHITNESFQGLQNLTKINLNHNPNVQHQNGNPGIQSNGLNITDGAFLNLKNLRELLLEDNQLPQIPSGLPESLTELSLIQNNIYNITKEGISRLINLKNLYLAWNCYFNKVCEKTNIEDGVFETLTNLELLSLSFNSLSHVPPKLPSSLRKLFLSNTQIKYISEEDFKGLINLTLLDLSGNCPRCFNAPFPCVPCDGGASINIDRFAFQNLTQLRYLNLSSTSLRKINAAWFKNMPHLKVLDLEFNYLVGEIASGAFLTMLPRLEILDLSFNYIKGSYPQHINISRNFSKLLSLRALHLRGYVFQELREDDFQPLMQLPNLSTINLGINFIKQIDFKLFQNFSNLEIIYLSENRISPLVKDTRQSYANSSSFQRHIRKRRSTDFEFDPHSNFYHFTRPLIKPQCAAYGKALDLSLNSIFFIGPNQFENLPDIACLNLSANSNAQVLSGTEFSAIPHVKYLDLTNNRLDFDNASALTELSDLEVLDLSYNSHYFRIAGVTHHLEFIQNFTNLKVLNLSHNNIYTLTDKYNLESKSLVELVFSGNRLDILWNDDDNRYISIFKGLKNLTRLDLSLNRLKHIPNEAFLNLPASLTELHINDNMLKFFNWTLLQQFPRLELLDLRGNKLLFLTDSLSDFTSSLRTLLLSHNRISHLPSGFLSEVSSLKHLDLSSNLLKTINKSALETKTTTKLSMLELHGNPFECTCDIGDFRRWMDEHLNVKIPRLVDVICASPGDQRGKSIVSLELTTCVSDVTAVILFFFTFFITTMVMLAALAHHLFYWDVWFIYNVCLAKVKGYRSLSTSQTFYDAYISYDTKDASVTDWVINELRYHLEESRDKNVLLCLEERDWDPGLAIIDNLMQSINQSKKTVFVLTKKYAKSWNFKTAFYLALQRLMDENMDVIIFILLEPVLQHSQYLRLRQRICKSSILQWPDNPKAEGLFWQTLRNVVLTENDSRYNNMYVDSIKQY
How it was run: as §1

human TLR7 = molecular target: T3, human TLR7 (Homo sapiens, UniProt Q9NYK1); test: TLR7 inhibition reporter assay (HEK-Blue cells, SEAP reporter, gardiquimod stimulation); settings: HEK-Blue cells overexpressing human TLR7, SEAP reporter, gardiquimod 7.5 μM
T3 construct: host or cells: HEK-Blue cells (HEK293-derived reporter line)
T3 sequence (Q9NYK1 27-1049): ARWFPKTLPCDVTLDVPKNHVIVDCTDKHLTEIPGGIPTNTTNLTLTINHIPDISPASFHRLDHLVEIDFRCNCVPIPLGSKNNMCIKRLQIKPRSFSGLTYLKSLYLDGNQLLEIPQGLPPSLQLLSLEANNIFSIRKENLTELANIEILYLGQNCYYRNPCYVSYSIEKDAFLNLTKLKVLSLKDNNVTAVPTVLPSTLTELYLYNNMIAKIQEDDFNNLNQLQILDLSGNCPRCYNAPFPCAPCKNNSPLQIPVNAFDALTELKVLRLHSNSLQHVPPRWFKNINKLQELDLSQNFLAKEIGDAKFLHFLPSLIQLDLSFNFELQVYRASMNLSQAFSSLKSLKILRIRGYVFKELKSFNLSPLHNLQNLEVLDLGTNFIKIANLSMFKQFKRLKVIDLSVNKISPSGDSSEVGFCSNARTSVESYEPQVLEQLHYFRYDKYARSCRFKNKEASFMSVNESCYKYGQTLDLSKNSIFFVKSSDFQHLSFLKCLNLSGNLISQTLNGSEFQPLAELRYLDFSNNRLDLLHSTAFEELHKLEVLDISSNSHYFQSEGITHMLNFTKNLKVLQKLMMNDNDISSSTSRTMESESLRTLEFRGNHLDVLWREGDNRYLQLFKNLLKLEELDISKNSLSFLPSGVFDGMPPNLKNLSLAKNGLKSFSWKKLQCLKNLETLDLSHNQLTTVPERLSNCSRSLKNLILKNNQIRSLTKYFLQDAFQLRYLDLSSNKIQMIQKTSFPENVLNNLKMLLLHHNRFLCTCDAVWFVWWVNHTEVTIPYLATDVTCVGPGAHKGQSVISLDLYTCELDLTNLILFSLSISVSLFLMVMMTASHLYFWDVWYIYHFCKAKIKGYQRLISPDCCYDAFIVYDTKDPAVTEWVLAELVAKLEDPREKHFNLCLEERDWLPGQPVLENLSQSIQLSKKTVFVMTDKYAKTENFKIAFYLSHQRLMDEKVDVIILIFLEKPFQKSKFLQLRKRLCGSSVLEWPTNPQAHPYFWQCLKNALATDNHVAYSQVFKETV
How it was run: as §1

| SMILES | IC50 (human TLR9) | IC50 (human TLR8) | IC50 (human TLR7) |
| --- | --- | --- | --- |
| CC(C)c1c(-c2ccn3nnnc3c2)[nH]c2ccc(C3CCN(CC(=O)N(C)C)CC3)cc12 [Example 304, 2-(4-(3-isopropyl-2-(tetrazolo[1,5-a]pyridin-7-yl)-1H-indol-5-yl)piperidin-1-yl)-N,N-dimethylacetamide] | 1000 to 50000 nM | 100 to 1000 nM | < 100 nM |
| Cc1cc(-c2[nH]c3ccc(C4CCNCC4)cc3c2C(C)C)cn2nnnc12 [Example 75, 6-(3-isopropyl-5-(piperidin-4-yl)-1H-indol-2-yl)-8-methyltetrazolo[1,5-a]pyridine] | 100 to 1000 nM | < 100 nM | < 100 nM |
| CCC(C)NCC(=O)N1CCC(c2ccc3[nH]c(-c4ccnc5[nH]ncc45)c(C(C)C)c3c2)CC1 (stereo not drawn) [Example 583, 2-(sec-butylamino)-1-(4-(3-isopropyl-2-(1H-pyrazolo[3,4-b]pyridin-4-yl)-1H-indol-5-yl)piperidin-1-yl)ethan-1-one] | 1000 to 50000 nM | < 100 nM | < 100 nM |
| CC(C)c1c(-c2ncnn3cccc23)[nH]c2ccc(C3CCNCC3)cc12 [Example 191, 4-(3-isopropyl-5-(piperidin-4-yl)-1H-indol-2-yl)pyrrolo[2,1-f][1,2,4]triazine] | 100 to 1000 nM | 100 to 1000 nM | 100 to 1000 nM |
| CC(C)c1c(-c2cc(C(C)C)c3nccn3c2)[nH]c2ccc(C3CCNCC3)cc12 [Example 260, 8-Isopropyl-6-(3-isopropyl-5-(piperidin-4-yl)-1H-indol-2-yl)imidazo[1,2-a]pyridine] | 1000 to 50000 nM | 100 to 1000 nM | < 100 nM |
| CC(=O)N1CCN(CC(=O)N2CCC(c3ccc4[nH]c(-c5ccnc6[nH]ncc56)c(C(C)C)c4c3)CC2)CC1 [Example 574, 2-(4-acetylpiperazin-1-yl)-1-(4-(3-isopropyl-2-(1H-pyrazolo[3,4-b]pyridin-4-yl)-1H-indol-5-yl)piperidin-1-yl)ethan-1-one] | > 50000 nM | < 100 nM | < 100 nM |
| COc1cc(-c2[nH]c3ccc(C4CCNCC4)cc3c2C(C)C)cc2nc(C)cn12 [Example 162, 7-(3-isopropyl-5-(piperidin-4-yl)-1H-indol-2-yl)-5-methoxy-2-methylimidazo[1,2-a]pyridine] | 100 to 1000 nM | 100 to 1000 nM | < 100 nM |
| Cc1cn2cc(-c3[nH]c4ccc(C5CCN(CC(=O)N(C)C)CC5)cc4c3CC(F)F)ccc2n1 [Example 416, 2-(4-(3-(2,2-difluoroethyl)-2-(2-methylimidazo[1,2-a]pyridin-6-yl)-1H-indol-5-yl)piperidin-1-yl)-N,N-dimethylacetamide] | < 100 nM | > 3130 nM | < 100 nM |

Second part, the compound after the results:

| IC50 (human TLR9) | IC50 (human TLR8) | IC50 (human TLR7) | SMILES |
| --- | --- | --- | --- |
| 100 to 1000 nM | < 100 nM | < 100 nM | Cc1nc(CN2CCC(c3ccc4[nH]c(-c5ccnc6[nH]ncc56)c(C(C)C)c4c3)CC2)c2ccccn12 [Example 868, 4-(3-isopropyl-5-(1-((3-methylimidazo[1,5-a]pyridin-1-yl)methyl)piperidin-4-yl)-1H-indol-2-yl)-1H-pyrazolo[3,4-b]pyridine] |
| > 50000 nM | > 50000 nM | > 50000 nM | CCc1c(-c2ccnc3[nH]ncc23)[nH]c2ccc(C3CCN(Cc4cnc(N)s4)CC3)cc12 [Example 931, 5-((4-(3-ethyl-2-(1H-pyrazolo[3,4-b]pyridin-4-yl)-1H-indol-5-yl)piperidin-1-yl)methyl)thiazol-2-amine] |
| 100 to 1000 nM | 100 to 1000 nM | < 100 nM | CC(C)c1c(-c2ccc3nccn3c2)[nH]c2ccc(C3CCN(C(=O)[C@@H]4CCCNC4)CC3)cc12 [Example 639, (R)-(4-(2-(imidazo[1,2-a]pyridin-6-yl)-3-isopropyl-1H-indol-5-yl)piperidin-1-yl)(piperidin-3-yl)methanone] |
| 1000 to 50000 nM | 100 to 1000 nM | < 100 nM | Cc1cc(-c2[nH]c3ccc(C4CCN(C5CCS(=O)(=O)CC5)CC4)cc3c2C(C)C)cc2cccnc12 [Example 800, 4-(4-(3-isopropyl-2-(8-methylquinolin-6-yl)-1H-indol-5-yl)piperidin-1-yl)tetrahydro-2H-thiopyran 1,1-dioxide] |
| 100 to 1000 nM | < 100 nM | < 100 nM | Cc1cc(-c2[nH]c3ccc(C4CCN(C5CCOCC5)CC4)cc3c2C(C)C)cn2ccnc12 [Example 705, 6-(3-isopropyl-5-(1-(tetrahydro-2H-pyran-4-yl)piperidin-4-yl)-1H-indol-2-yl)-8-methylimidazo[1,2-a]pyridine] |
| 1000 to 50000 nM | < 100 nM | < 100 nM | Cc1c(-c2[nH]c3ccc(C4CCN(C5COC5)CC4)cc3c2C(C)C)cn2nnnc2c1C [Example 739, 6-(3-isopropyl-5-(1-(oxetan-3-yl)piperidin-4-yl)-1H-indol-2-yl)-7,8-dimethyltetrazolo[1,5-a]pyridine] |
